Assay results taken from patent US4621077A, “Pharmacologically active biphosphonates, process for the preparation thereof and pharmaceutical compositions therefrom” (Istituto Gentili S.p.A., priority 1982, dated 1986).
Where “and” joins values, the source holds several entries; their conditions need not be identical. Identical values can stand only once. Like-named read-outs stand apart in the source and are kept apart here.

Assays:
skull cells = assay: cells; assay type: cell-based, Wistar rats; settings: Rattus norvegicus, read-out: Effect on the cellular number ± S.E.M.
Experimental: (§1) Cellular culture: the cells are cultured according to the method described by Fast et al, (Biochem. J. 172, 97-107 (1978)). By way of summary, the skulls removed from Wistar rats, one day old, are digested with collagenase. The cells set free are placed on a plate with concentration of 200,000 cells per cc of medium in disks "clusters" suitable for culture, the plates having 24 wells of 1.6 cm in diameter containing 0.5 cc of medium. The cells are cultivated in the essential minimum medium containing 10% of foetal calf serum in an atmosphere of 5% CO2 at 37° up to the eighth day. The bisphosphonates are added on the first day up to the end of the experiment. The medium is changed on the first, fourth and seventh day.
The cells are counted with a Coulter counter after they have been set free from the disks by digestion with a mixture of collagenase and trypsin.

[1] = tested on: skull cells (lactate production); assay: cells; assay type: cell-based, Wistar rats; settings: Rattus norvegicus, 16 h, read-out: Effect on the production of lactate ± S.E.M.
Experimental: as §1
On the seventh day, the medium is changed and the cells are incubated for 16 hours. The lactate produced during this period is measured in an extract in HClO4 of the medium using lactatodehydrogenase.

[2] = tested on: patients with primary hyperparathyroidism
Experimental: The substance ABDP, aminobutanediphosphonate has been used for venous infusion, 0.5-25 mg/day dissolved in 500 cc of 5% glucose solution in the following conditions:
Eight individuals having different degrees of calcemia varying to the extent of 17-11 mg%, were treated.

[3] = tested on: patients with Paget's disease
Experimental: (§2) The substance ABDP, aminobutanediphosphonate has been used for venous infusion, 0.5-25 mg/day dissolved in 500 cc of 5% glucose solution in the following conditions: […]

[4] = tested on: patients with widespread neoplastic osteolysis; settings: six patients, 4 mg/day
Experimental: as §2

[5] = tested on: bone reabsorption (metaphyseal bone density); assay: Metaphyseal bone density / inhibition of bone reabsorption in rats treated for 7 days; assay type: in vivo; settings: for metaphysical density: 7 days, rats
[6] = tested on: inhibition of the bone reabsorption
[7] = tested on: patients with tumoral osteolysis
injection sites / skin = assay: Necrosis at the injection sites in rats (local skin toxicity)
From the text: The symbol "x" represents a conventional score, that is "x" meand slight necrosis, "xx" means severe necrosis, "xxx" means very severe necrosis.

[8] = tested on: patients with tumoral osteolysis; settings: comparison stated for other bisphosphonates, no own test shown; cited from earlier work
Solubility in water = assay type: physicochemical
[9] = two patients, 50 mg, three days

## NCCCC(O)(P(=O)(O)O)P(=O)(O)O [AHBU BP, 4-amino-1-hydroxybutan-1,1-biphosphonic acid]
Skull cells
  activity at 2.5 µM: 100 ± 1.6%
  activity at 25 µM: 101 ± 1.5%
  activity at 250 µM: 74.2 ± 4.7%
[1]
  activity at 2.5 µM: 88 ± 1.5%
  activity at 25 µM: 79.6 ± 4.1%
  activity at 250 µM: 180 ± 18.6%
[2]; comparison in patients with primary hyperparathyroidism, Cl2 MDP data from Adami et al, 1983
  times more active than Cl2 MDP: 20-100 times
[2]; four patients, 4-8 mg/day, 3-4 days
  calcemia and hydroxyprolinuria: the decrease of calcemia has been transitory, with the values of calcemia and the hydroxyprolinuria having a tendency to return to the basal values a few days after the suspension of the drug
[2]; one case with border line calcemia, 4 mg/day for four days
  calcemia: has not caused any variation in the calcemia even if it is accompanied by a persistent reduction in the calcemia
[2]; seven patients with very elevated calcemia, venous infusion
  calcemia: a drastic reduction of calcemia was achieved up to normal values in five of the patients
[2]; simultaneous with decrease of calcemia
  hydroxyprolinuria: rapid and parallel decrease of hydroxyprolinuria
[2]; three cases, 25 mg/day for seven days
  calcemia: normalization of calcemia up to the day of surgical intervention
[3]; after 6-8 months
  hydroxyprolinuria and alkaline phosphatemia at follow-up: normal values of hydroxyprolinuria and alkaline phosphatemia
[3]; three patients, 4 mg or 0.5 mg per day
  alkaline phosphatemia: gradual decrease up to normal values after 3-4 months of therapeutic cycle
[4]
  days of treatment after which painful bone symptoms decreased: 5 to 8 days
[4]; two weeks
  calciuria: normalization of calciuria
[4]; in five days
  decrease of hydroxyprolinuria: 50-80%
[5]; in vivo in rats
  times superior activity versus AHPrBP (inhibition of bone reabsorption): about 100 times
[6]; clinical, overall conclusion
  times more active than Cl2 MDP (inhibition of the bone reabsorption): 100-300 times
[6]; detailed observations in comparison not available yet
  activity on the immunity system: the activity on the immunity system appears to be peculiar to ABDP
[7]; human, in vivo
  fever after administration: not been followed by fever
[7]; [9]
  effect of treatment: surprisingly every effective
  period of remission of the symptoms: surprisingly long

## NCCC(O)(P(=O)(O)O)P(=O)(O)O [AHPrBP, 3-amino-1-hydroxypropylidene-1,1-bisphosphonate]
[5]; 0.01 mg P/kg s.c., s.c. NaCl controls 29.72
  metaphysical density: 39.53 % volume of calcified tissue
[5]; 0.1 mg P/kg s.c., s.c. NaCl controls 29.72
  metaphysical density: 50.31 % volume of calcified tissue
[5]; 2.0 mg P/kg p.o., p.o. NaCl controls 28.45
  metaphysical density: 33.72 % volume of calcified tissue
Injection sites / skin; 0.01 mg P/kg, 1 day
  necrosis at the injection sites: .0.
Injection sites / skin; 0.01 mg P/kg, 2 day
  necrosis at the injection sites: .0.
Injection sites / skin; 0.01 mg P/kg, 3 day
  necrosis at the injection sites: .0.
Injection sites / skin; 0.01 mg P/kg, 4 day
  necrosis at the injection sites: .0.
Injection sites / skin; 0.01 mg P/kg, 5 day
  necrosis at the injection sites: .0.
Injection sites / skin; 0.01 mg P/kg, 6 day
  necrosis at the injection sites: .0.
Injection sites / skin; 0.01 mg P/kg, 7 day
  necrosis at the injection sites: .0.
Injection sites / skin; 0.1 mg P/kg, 1 day
  necrosis at the injection sites: .0.
Injection sites / skin; 0.1 mg P/kg, 2 day
  necrosis at the injection sites: .0.
Injection sites / skin; 0.1 mg P/kg, 3 day
  necrosis at the injection sites: .0.
Injection sites / skin; 0.1 mg P/kg, 4 day
  necrosis at the injection sites: .0.
Injection sites / skin; 0.1 mg P/kg, 5 day
  necrosis at the injection sites: .0.
Injection sites / skin; 1 mg P/kg, 1 day
  necrosis at the injection sites: xxx and .0.
Injection sites / skin; 1 mg P/kg, 2 day
  necrosis at the injection sites: xxx and .0.
Injection sites / skin; 1 mg P/kg, 3 day
  necrosis at the injection sites: .0.
Injection sites / skin; 10 mg P/kg, 1 day
  necrosis at the injection sites: xxx
Injection sites / skin; 10 mg P/kg, 2 day
  necrosis at the injection sites: xxx
Injection sites / skin; rat, in vivo
  local / topical skin toxicity, in words: The most toxic substance
[8]
  fever after administration: occurs very frequently

## O=P(O)(O)C(F)(F)P(=O)(O)O [Example 6, trisodium difluoromethanebiphosphonate]
Solubility in water
  solubility in water: soluble in water

## O=P(O)(O)C(F)(F)P(=O)(O)O [Example 8, lysine difluoromethanebiphosphonate]
Solubility in water
  solubility in water: very soluble in water
